Assay results published in patent US9505728B2, “Triazolone compounds and uses thereof” (INCEPTION 2, INC., priority 2012, dated 2016).

target: T1, Human PPARα (Homo sapiens, UniProt Q07869); assay: Human PPARα Reporter Assay (luciferase); type: cell-based; conditions: human PPARα reporter cells, overnight incubation, antagonism; read-out: Luciferase IC50
T1 construct: host or cells: proprietary non-human mammalian cells
T1 sequence (Q07869 1-468): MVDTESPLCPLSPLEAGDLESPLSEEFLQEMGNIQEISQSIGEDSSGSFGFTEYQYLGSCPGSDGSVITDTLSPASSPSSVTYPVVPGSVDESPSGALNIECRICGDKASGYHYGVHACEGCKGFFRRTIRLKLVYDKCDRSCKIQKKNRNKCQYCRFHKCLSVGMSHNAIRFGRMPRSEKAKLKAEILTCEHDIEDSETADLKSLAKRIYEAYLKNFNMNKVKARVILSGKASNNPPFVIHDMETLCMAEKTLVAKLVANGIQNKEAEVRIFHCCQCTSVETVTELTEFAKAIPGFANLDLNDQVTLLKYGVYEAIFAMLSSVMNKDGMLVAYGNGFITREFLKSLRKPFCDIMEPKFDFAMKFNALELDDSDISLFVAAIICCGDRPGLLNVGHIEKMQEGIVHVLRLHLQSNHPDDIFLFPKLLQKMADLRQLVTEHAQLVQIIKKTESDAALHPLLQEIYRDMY
Method: Human PPARα Reporter Assay
The screening of test compounds for agonist or antagonist activities against human PPARα receptors was performed using a commercial kit, Human PPARα Reporter Assay System (Indigo Biosciences, Cat. #IB00111).
This nuclear receptor assay system utilizes proprietary non-human mammalian cells engineered to provide constitutive, high-level expression of Human PPARα. Because these cells incorporate a PPARα-responsive luciferase reporter gene, quantifying expressed luciferase activity provides a sensitive surrogate measure of PPARα activity in the treated cells. The primary application of this reporter assay system is in the screening of test samples to quantify any functional activity, either agonist or antagonist, that they may exert against human PPARα.
Briefly, reporter cells are dispensed into wells of the assay plate and then immediately dosed with test compounds. Following an overnight incubation, the treatment media is discarded and Luciferase Detection Reagent (LDR) is added. The intensity of light emission from the ensuing luciferase reaction provides a sensitive measure that is directly proportional to the relative level of PPARα activation in the reporter cells.

Structure (SMILES)	IC50 [nM]
CCn1c(CCCc2ccc(-c3cccc(CC(=O)O)c3)cc2)nn(Cc2ccc(C(C)(C)C)cc2)c1=O [Example 1, 2-(4′-(3-(1-(4-(tert-Butyl)benzyl)-4-ethyl-5-oxo-4,5-dihydro-1H-1,2,4-triazol-3-yl)propyl)-[1,1′-biphenyl]-3-yl)acetic acid]	95
CCn1c(CCCc2ccc(-c3cccc(C(=O)O)c3)cc2)nn(Cc2ccc(C(C)(C)C)cc2)c1=O [Example 2, 4′-(3-(1-(4-(tert-Butyl)benzyl)-4-ethyl-5-oxo-4,5-dihydro-1H-1,2,4-triazol-3-yl)propyl)-[1,1′-biphenyl]-3-carboxylic acid]	57
CCn1c(CCCc2ccc(-c3cccc(N)n3)cc2)nn(Cc2ccc(C(C)(C)C)cc2)c1=O [Example 3, 3-(3-(4-(6-Aminopyridin-2-yl)phenyl)propyl)-1-(4-(tert-butyl)benzyl)-4-ethyl-1H-1,2,4-triazol-5(4H)-one]	271
CCn1c(CCCc2ccc(-c3ccc(N)cn3)cc2)nn(Cc2ccc(C(C)(C)C)cc2)c1=O [Example 5, 3-(3-(4-(5-Aminopyridin-2-yl)phenyl)propyl)-1-(4-(tert-butyl)benzyl)-4-ethyl-1H-1,2,4-triazol-5(4H)-one]	43
CCn1c(CCCc2ccc(-c3cccc(N)c3)cc2)nn(Cc2ccc(C(C)(C)C)cc2)c1=O [Example 6, 3-(3-(3′-Amino-[1,1′-biphenyl]-4-yl)propyl)-1-(4-(tert-butyl)benzyl)-4-ethyl-1H-1,2,4-triazol-5(4H)-one]	255
CCn1c(CCCc2ccc(-c3cccc(CC(=O)NS(=O)(=O)c4ccccc4)c3)cc2)nn(Cc2ccc(C(C)(C)C)cc2)c1=O [Example 8, 2-(4′-(3-(1-(4-(tert-Butyl)benzyl)-4-ethyl-5-oxo-4,5-dihydro-1H-1,2,4-triazol-3-yl)propyl)-[1,1′-biphenyl]-3-yl)-N-(phenylsulfonyl) acetamide]	304
CCn1c(CCCc2ccc(-c3cc(N)ccn3)cc2)nn(Cc2ccc(C(C)(C)C)cc2)c1=O [Example 11, 3-(3-(4-(4-Aminopyridin-2-yl)phenyl)propyl)-1-(4-(tert-butyl)benzyl)-4-ethyl-1H-1,2,4-triazol-5(4H)-one]	157
CCn1c(CCCc2ccc(-c3ccc(NS(C)(=O)=O)cn3)cc2)nn(Cc2ccc(C(C)(C)C)cc2)c1=O [Example 12, N-(6-(4-(3-(1-(4-(tert-Butyl)benzyl)-4-ethyl-5-oxo-4,5-dihydro-1H-1,2,4-triazol-3-yl)propyl)phenyl)pyridin-3-yl)methanesulfonamide]	63
CCn1c(CCCc2ccc(-c3cccc(C4(C(=O)O)CC4)c3)cc2)nn(Cc2ccc(C(C)(C)C)cc2)c1=O [Example 13, 1-(4′-(3-(1-(4-(tert-Butyl)benzyl)-4-ethyl-5-oxo-4,5-dihydro-1H-1,2,4-triazol-3-yl)propyl)-[1,1′-biphenyl]-3-yl)cyclopropanecarboxylic acid]	268
CCn1c(CCCc2ccc(-c3cccc(C4(C(N)=O)CC4)c3)cc2)nn(Cc2ccc(C(C)(C)C)cc2)c1=O [Example 14, 1-(4′-(3-(1-(4-(tert-butyl)benzyl)-4-ethyl-5-oxo-4,5-dihydro-1H-1,2,4-triazol-3-yl)propyl)-[1,1′-biphenyl]-3-yl)cyclopropanecarboxamide]	284
CCn1c(CCCc2ccc(-c3cccc(C(C)(C)C(N)=O)c3)cc2)nn(Cc2ccc(C(C)(C)C)cc2)c1=O [Example 15, 2-(4′-(3-(1-(4-(tert-Butyl)benzyl)-4-ethyl-5-oxo-4,5-dihydro-1H-1,2,4-triazol-3-yl)propyl)-[1,1′-biphenyl]-3-yl)-2-methylpropanamide]	519
CCn1c(CCCc2ccc(-c3cccc(CC(=O)O)c3F)cc2)nn(Cc2ccc(C(C)(C)C)cc2)c1=O [Example 18, 2-(4′-(3-(1-(4-(tert-Butyl)benzyl)-4-ethyl-5-oxo-4,5-dihydro-1H-1,2,4-triazol-3-yl)propyl)-2-fluoro-[1,1′-biphenyl]-3-yl)acetic acid]	1420
CCn1c(CCCc2ccc(-c3cc(CC(=O)O)ccc3F)cc2)nn(Cc2ccc(C(C)(C)C)cc2)c1=O [Example 19, 2-(4′-(3-(1-(4-(tert-Butyl)benzyl)-4-ethyl-5-oxo-4,5-dihydro-1H-1,2,4-triazol-3-yl)propyl)-6-fluoro-[1,1′-biphenyl]-3-yl)acetic acid]	796
CCn1c(CCCc2ccc(-c3cc(CC(=O)O)ccc3OC)cc2)nn(Cc2ccc(C(C)(C)C)cc2)c1=O [Example 20, 2-(4′-(3-(1-(4-(tert-Butyl)benzyl)-4-ethyl-5-oxo-4,5-dihydro-1H-1,2,4-triazol-3-yl)propyl)-6-methoxy-[1,1′-biphenyl]-3-yl)acetic acid]	1830
CCn1c(CCCc2ccc(-c3cccc(CC(=O)O)c3)cc2)nn(Cc2ccc(C3CC3)cc2)c1=O [Example 22, 2-(4′-(3-(1-(4-Cyclopropylbenzyl)-4-ethyl-5-oxo-4,5-dihydro-1H-1,2,4-triazol-3-yl)propyl)-[1,1′-biphenyl]-3-yl)acetic acid]	612
CCn1c(CCCc2ccc(-c3nc(NC(=O)OC(C)(C)C)co3)cc2)nn(Cc2ccc(C(C)(C)C)cc2)c1=O [Example 25, tert-Butyl (2-(4-(3-(1-(4-(tert-butyl)benzyl)-4-ethyl-5-oxo-4,5-dihydro-1H-1,2,4-triazol-3-yl)propyl)phenyl)oxazol-4-yl)carbamate]	184
CCn1c(CCCc2ccc(-c3cccc(CC(=O)O)c3)cc2)nn(Cc2ccc(C3CCCCC3)cc2)c1=O [Example 26, 2-(4′-(3-(1-(4-Cyclohexylbenzyl)-4-ethyl-5-oxo-4,5-dihydro-1H-1,2,4-triazol-3-yl)propyl)-[1,1′-biphenyl]-3-yl)acetic acid]	4110
CCn1c(CCCc2ccc(-c3cccc(C(F)(F)C(=O)O)c3)cc2)nn(Cc2ccc(C(C)(C)C)cc2)c1=O [Example 28, 2-(4′-(3-(1-(4-(tert-Butyl)benzyl)-4-ethyl-5-oxo-4,5-dihydro-1H-1,2,4-triazol-3-yl)propyl)-[1,1′-biphenyl]-3-yl)-2,2-difluoroacetic acid]	1980

Further molecules by falling IC50, results first:

IC50 [nM]	Structure (SMILES)
2170	CCn1c(COCc2ccc(-c3cccc(CC(=O)O)c3)cc2)nn(Cc2ccc(C(C)(C)C)cc2)c1=O [Example 27, 2-(4′(((1-(4-(tert-Butyl)benzyl)-4-ethyl-5-oxo-4,5-dihydro-1H-1,2,4-triazol-3-yl)methoxy)methyl)-[1,1′-biphenyl]-3-yl)acetic acid]
579	CCn1c(CCCc2ccc(-c3cccc(CC(=O)O)c3)cc2)nn(Cc2ccc(C(F)(F)F)cc2)c1=O [Example 24, 2-(4′-(3-(4-Ethyl-5-oxo-1-(4-(trifluoromethyl)benzyl)-4,5-dihydro-1H-1,2,4-triazol-3-yl)propyl)-[1,1′-biphenyl]-3-yl)acetic acid]
471	CCn1c(CCCc2ccc(-c3cccc(NS(=O)(=O)c4ccc(C)cc4)c3)cc2)nn(Cc2ccc(C(C)(C)C)cc2)c1=O [Example 7, N-(4′-(3-(1-(4-(tert-Butyl)benzyl)-4-ethyl-5-oxo-4,5-dihydro-1H-1,2,4-triazol-3-yl)propyl)-[1,1′-biphenyl]-3-yl)-4-methylbenzenesulfonamide]
363	CCn1c(CCCc2ccc(-c3cccc(C(=O)NS(=O)(=O)c4ccccc4)c3)cc2)nn(Cc2ccc(C(C)(C)C)cc2)c1=O [Example 9, 4′-(3-(1-(4-(tert-Butyl)benzyl)-4-ethyl-5-oxo-4,5-dihydro-1H-1,2,4-triazol-3-yl)propyl)-N-(phenylsulfonyl)-[1,1′-biphenyl]-3-carboxamide]
272	CCn1c(CCCc2ccc(-c3ccc4c(c3)C(C(=O)O)CO4)cc2)nn(Cc2ccc(C(C)(C)C)cc2)c1=O (racemic) [Example 96, (rac)-5-(4-(3-(1-(4-(tert-Butyl)benzyl)-4-ethyl-5-oxo-4,5-dihydro-1H-1,2,4-triazol-3-yl)propyl)phenyl)-2,3-dihydrobenzofuran-3-carboxylic acid]
90	CCn1c(CCCc2ccc(-c3cc(NS(=O)(=O)c4ccccc4)ccn3)cc2)nn(Cc2ccc(C(C)(C)C)cc2)c1=O [Example 16, N-(2-(4-(3-(1-(4-(tert-Butyl)benzyl)-4-ethyl-5-oxo-4,5-dihydro-1H-1,2,4-triazol-3-yl)propyl)phenyl)pyridin-4-yl)benzenesulfonamide]
40	CCn1c(CCCc2ccc(-c3cccc(NS(=O)(=O)c4ccccc4)n3)cc2)nn(Cc2ccc(C(C)(C)C)cc2)c1=O [Example 4, N-(6-(4-(3-(1-(4-(tert-Butyl)benzyl)-4-ethyl-5-oxo-4,5-dihydro-1H-1,2,4-triazol-3-yl)propyl)phenyl)pyridin-2-yl)benzenesulfonamide]
25	CCn1c(CCCc2ccc(-c3ccc(OC)c(CC(=O)O)c3)cc2)nn(Cc2ccc(C(C)(C)C)cc2)c1=O [Example 21, 2-(4′-(3-(1-(4-(tert-Butyl)benzyl)-4-ethyl-5-oxo-4,5-dihydro-1H-1,2,4-triazol-3-yl)propyl)-4-methoxy-[1,1′-biphenyl]-3-yl)acetic acid]
